Results as given in a melting point compilation (Tetko et al.; mined from patent text by program, amines drawn as free bases though some values may be those of a salt).

melting point [°C]	Compound
99 to 100	CC(C)=CCOc1ccc(C(=O)C=Cc2ccncc2)c(O)c1
120 to 121	COc1cc2c(Nc3cccc(Cl)c3F)ncnc2cc1O[C@H]1CCCN(C(=O)CN2CCN(C)CC2)C1
121 to 124	CNC(=NC(=O)NC1CCCCC1)N(C)C
310 to 314	Nc1cc(F)cc(F)c1NC(=S)Nc1c(Cl)cccc1Cl
207	COc1ccccc1C1=C(C#N)C(c2ccccc2[N+](=O)[O-])c2c[nH]nc2N1 (configuration not stated)
129 to 131	COc1ccc(C=Nc2ccc(S(=O)(=O)NC(C)(C)C)cc2)cc1F
220 to 225	CSC(=NC#N)Nc1ccc(C#N)cc1
220 to 221	CC1(C)CC(=O)C2=C(C1)NC1=C(C(=O)CC(C)(C)C1)C2c1cccc(Oc2ncccn2)c1
178 to 179	Cc1c(C)c2c(c(C)c1NC(=O)CC(C)(C)C)C(c1cccc(C=O)c1)CO2 (configuration not stated)
125 to 127	COc1cc(C(=O)O)ccc1Cc1cccc2ccc(CCCCC(=O)N(C)C)cc12
163 to 164	C[C@@H](C[C@H](N)C(=O)O)C(=O)O
114 to 115	COc1cc(C(C)C)nn1C
173 to 174	CC(C)(C)c1cc(C(=O)c2ccccc2C(=O)O)cc(C(C)(C)C)c1O
88 to 89	CCCCc1c(Cl)cccc1NC(=O)C(C)(C)C
190 to 192	COc1ccc(-c2ccc(N3CCCN(c4ccc(-c5ccc(OC)c(OC)c5)cn4)CC3)nc2)cc1OC
205 to 207	CC(C)n1nc(-c2sc(NC(=O)Oc3ccccc3)nc2-c2ccccc2)ccc1=O
62.4 to 63.2	CCOCCOc1ccc(C(=O)Oc2ccc(C#N)c(F)c2)cc1
98	O=c1ncc(C(F)(F)F)cn1COc1ccc(Cl)cc1
237 to 238	O=c1c(-c2ccc(O)cc2)coc2ccccc12
100	CC(C)CNC(=O)C(C)(C)N=NC(C)(C)C(=O)NCC(C)C
196 to 198	CCSc1ccc(CC(=O)NC(NC(Cc2ccccc2C)=NC#N)C(C)(C)C)cc1 (configuration not stated)
155 to 156	COc1cc(COc2nn(C)cc2C=O)ccc1OCc1nc(-c2ccco2)oc1C
265 to 268	O=C1Cc2ccc3ccccc3c2C(c2ccccc2F)N1 (configuration not stated)
140	CC1CC(C)CN(S(=O)(=O)c2ccc(F)c(C(=O)O)c2)C1 (configuration not stated)

melting point [°C]	Compound
175 to 177	CC#CCC(CC#CC)(C(=O)O)S(=O)(=O)c1ccc(N2CCC(NC[C@H](O)c3ccc(O)c(NS(C)(=O)=O)c3)CC2)cc1
118 to 119	CC(C)(C)OC(=O)Nc1cccc(C(=O)OCC#N)c1
150 to 155	Cc1ccc(S(=O)(=O)NC(=O)Nc2cc(C)c(S(=O)(=O)C[N+](=O)[O-])c(C)c2)cc1
133 to 135	COc1cc2c(cc1OCc1ccccc1)CCN(C(=O)CC13CC4CC(CC(C4)C1)C3)C2
127 to 129	CC(C)Cc1nc2ccc(OC(C)(C)C)cc2c(-c2ccccc2F)c1C#N
157	CN(C)C(=O)c1cc2c(NCCc3ccccc3)ncnc2s1
104 to 106	CCCCCS(=O)(=O)NC(=O)/C(=C/c1ccc(OCCOC)cc1Oc1ncc(C(F)(F)F)cc1Cl)CC
121 to 122	Oc1cc(O)c2c(-c3cc(F)cc(F)c3)c(Br)oc2c1
71 to 72	COc1ccc(NC(=O)N2CCC(C)C2=O)cc1 (configuration not stated)
169 to 171	Cc1c([N+](=O)[O-])ccc2c1CCN2
92 to 93	Cc1c(C)c2c(c(C)c1N)C(=O)C(C)(C)O2
159 to 160	CNC(=NC#N)NCCCSc1nccc(NC(N)=NCC(F)(F)F)n1
170 to 175	Cc1nc(-c2ccc(CCN3CCN(c4cccc(C(F)(F)F)c4)CC3)cc2)cs1
161 to 164	c1ccc(C2Nc3ccccc3N3CCc4cccc2c43)cc1 (configuration not stated)
116 to 117	Cc1ccc(C#N)c(OCc2ccc(OCc3nc(-c4ccccc4)oc3C)cc2)n1
94 to 94.6	C#Cc1cc2c(cc1C=O)C(C)(C)CCC2(C)C
125 to 127	COc1cc2oc(=O)c(CCCl)c(C)c2cc1OC(C)C
114 to 116	CN(C)C1CC2=CN(S(=O)(=O)c3ccccc3)C=C3C=CC(=O)CC1=C32 (configuration not stated)
144	O=c1[nH]c2cc(F)ccc2n(C(c2ccccc2)c2ccccc2)c1=O
104	CC(=O)N(C)C1(c2ccccc2)CCN(Cc2ccccc2)CC1
162 to 165	CCCCCCCCCCCc1[nH]c2ccc(C(=O)OC)cc2c1C=O
199 to 200	O=C(OCc1ccccc1)N1CCc2ccccc2C12CCC(C(=O)O)(C(=O)O)CC2
179 to 180	Cc1cc(Nc2ccccc2)nc(N)n1
188 to 190	N#Cc1c(N2CCCCC2)cc(-c2cccc3ccccc23)c2c1-c1ccccc1C2

melting point [°C]	Compound
252 to 254	Cn1c(C(=O)N(Cc2cc(C(F)(F)F)cc(C(F)(F)F)c2)Cc2cc(C(F)(F)F)cc(C(F)(F)F)c2)c(-c2ccc(F)cc2)c2cccnc2c1=O
63 to 68	OCCCC(O)c1ccccc1 (configuration not stated)
127 to 128	BrCc1ccc2c(-c3ccccc3)onc2c1
126 to 127	OC(Cn1cncn1)(c1ccc(F)cc1)C(F)(F)C(F)(F)C(F)(F)F (configuration not stated)
69 to 77	COC(=O)c1c(F)cc(OCCNC(=O)C2Cc3ccccc3N2S(=O)(=O)c2ccc(-c3ccc(F)cc3F)cc2)cc1F (configuration not stated)
87 to 89	COc1ccc(OC(=O)Cl)cc1C12CC3CC(CC(C3)C1)C2
166 to 168	CC(=S)NC[C@H]1CN(c2ccc(-c3nc(Cn4cccn4)cs3)c(F)c2)C(=O)O1
230 to 231	Cc1c(-c2ccc(OCC3CC3)cc2)nc2n(Cc3c(F)cccc3F)cc(Br)c(=O)n12
131 to 132	CCON1CCC(NC(=O)Cc2c(C)cc(C)cc2C)(C(=O)OC)CC1
63	CC(C)C(C(=O)O)c1ccc(OC(F)F)cc1 (configuration not stated)
127	CCP(=O)(CC)Cc1ccccc1O
192 to 195	CC(c1oc2ccccc2c(=O)c1-c1cccc(F)c1)n1nc(-c2cc(O)ccc2Cl)c2c(N)ncnc21 (configuration not stated)
128 to 130	CCCCOC(=O)[C@H]1CN(c2ccc(N3CCSCC3)c(F)c2)C(=O)O1
132 to 133	CC(C)(C)OC(=O)N1CCc2c(n(CCOc3ccccc3)c3c(Cl)ccc(Cl)c23)CC1
67.5 to 68.9	COc1ccc(C(=O)CCCC(=O)C(F)(F)F)cc1
166	CN(C)C(=O)CCc1c(-c2ccccc2)n(C)c(=O)c2ccccc12
254 to 255	COc1cccc(CNC(=O)c2nc3scc(C(=O)NCc4ccc(C(=O)O)cc4)c3c(=O)[nH]2)c1
159 to 162	S=C(Nc1ccc(Cl)c(Cl)c1)NC1CCCCC1
194 to 195	CCc1c(-c2ccc(O)cc2)c2cc(C(C)=O)c3ccc(CO)c1n32
169 to 174	CCOc1c([C@@H]2C[C@@H]2/C=C/C(C)=C/C(=O)O)cc(C(C)(C)C)cc1C(C)(C)C (racemic)
135 to 138	Cc1cncc2ncc(-c3ccccc3)cc12
111 to 114	c1ccc2c(c1)CCc1cccnc1C2C1CCNCC1 (configuration not stated)
90 to 91	CCOc1ccc(C2=NN(C(CC)CCCCC(=O)O)C(=O)C3CCCCC23)cc1OCC (configuration not stated)
254	CCOC(=O)c1cc2c(cn1)[nH]c1ccc([N+](=O)[O-])c(OCc3ccccc3)c12

melting point [°C]	Compound
117 to 118	CC(=O)c1ccc(NS(C)(=O)=O)c(Oc2ccc(F)cc2F)c1
40 to 42	Cc1oc(-c2ccccc2)nc1CCCCCO
122 to 124	CCCCCC(Cc1cnc(SCCC)n1Cc1ccccc1Cl)C(=O)O (configuration not stated)
129 to 131	Cn1cccc(O)c1=O
187	O=C1OC(=Cc2ccccc2)c2ccc(-c3ccccc3)cc21
154	CCCn1ncnc1COc1nn2c(-c3ccc(F)cc3)nncc2c1C(C)(C)C
46 to 47	CCOC(=O)c1c(C(F)(F)F)nc(C(F)(F)F)c(C(=O)OC)c1N=[N+]=[N-]
118 to 120	COCCc1ncc(CO)c(NCc2ccc(-c3ccccc3-c3nnnn3C(c3ccccc3)(c3ccccc3)c3ccccc3)cc2)n1
159 to 160	Cc1ccc(CNC(=O)c2ccc(F)cc2OCC(=O)O)cc1[N+](=O)[O-]
318 to 320	O=C1CCC(N2C(=O)c3ccc(CNC(=O)c4cc5ccccc5s4)cc3C2=O)C(=O)N1 (configuration not stated)
68 to 83	CCN(CC)c1ccc(N(c2ccc(N(C)C)cc2)C2(c3ccc(N(CC)CC)cc3C)OC(=O)c3ccccc32)cc1 (configuration not stated)
179	CCCCCCCCCCCCCCCCCCCC(=O)Nc1ccc(NC(=O)NS(=O)(=O)c2ccc3ccccc3c2)cc1
140	Cc1cccc(NC(=O)NCC(=O)N(CC(=O)OC(C)(C)C)c2cccc(C(F)(F)F)c2)c1
287 to 288	COc1cc(Nc2c(C#N)cnc3cc(-c4cccc([N+](=O)[O-])c4)ccc23)c(Cl)cc1Cl
196 to 197	N#Cc1cccc(CSc2nnc(-c3ccn4ncnc4c3)o2)c1
73 to 75	c1ccc(C(=C2CCN(CCN3CCNCC3)CC2)c2ccccc2)cc1
133 to 134	Cc1cc(-c2cc(CN3CCN(C)CC3)c(=O)n(Cc3ccc(Cl)cc3)n2)ccc1F
157 to 158	N#Cc1cnc(N[C@H]2CC[C@H](O)CC2)c([N+](=O)[O-])c1
169 to 172	O=C(O)c1c[nH]c(Sc2cc(Cl)cc(Cl)c2)c1
104	Fc1nc(F)c(F)c(F)n1
267	O=C(O)c1ccc(C(=O)Nc2nnc(-c3cc(Cl)cc(Cl)c3O)s2)nc1

Compound	melting point [°C]
O=[N+]([O-])c1c(F)cc(N2CCOCC2)cc1F	112 to 114
CC(C)c1ncc2n1-c1ccc(Cl)cc1C(c1ccccc1F)=NC2	168 to 169
Cc1c(C(=O)N(N)c2ccccc2)nn(-c2ccc(Cl)cc2Cl)c1-c1ccc(Cl)s1	154 to 155
COC(=O)c1cccc(C(=O)c2cn(CC(=O)N(C)CCc3ccccc3)c3ccc(OCc4ccccc4)cc23)c1	224 to 230
